Results on 6 molecules are retold here after patent US10889554B2, “Excimer forming compounds” (THE GOVERNING COUNCIL OF THE UNIVERSITY OF TORONTO, priority 2013, dated 2021).

For experiment [1], the system named is proximally phosphorylated peptides. The experiment in a line: Detection of proximally phosphorylated peptides in aqueous solution (384 well plate, emission 476 nm). The experiment is classed as binding. As for the experimental part: In one example 40 μM of compound 1 pre-metallated with zinc(II) triflate (referred to as “Zn^2+ pre-metallation” in FIG. 13; procedure described in example) was titrated with 80-0.04 μM of pY and pYpY peptides in 50 mM HEPES pH 7.5, 5% DMSO. In another example, 40 μM of compound 1 was dissolved in 50 mM HEPES pH 7.5, 5% DMSO, which contained 40 μM of zinc(II) triflate (referred to as “in situ Zn^2+ metallation” in FIG. 13) and was titrated with 80-0.04 μM of pY and pYpY peptides. Fluorescence measurements were performed as described in Example 2.
(§1) Various conditions for the detection of proximally phosphorylated peptides and proteins in aqueous solution are shown in Table 1. For the screens, analytes (peptides) were dissolved in a specific buffer at various concentrations (normally 100 μM to 40 nM), and combined with 40 μM of compound 1 in complex with Zn^2+ (triflate salt) dissolved in the same buffer on a 384 well flat bottom black plate. The mixture was incubated for 20 minutes and fluorescence emission intensity at 476 nm (10-20 nm bandwidth) was measured using a Tecan M1000 microplate reader, upon excitation at 350 nm (5 nm bandwidth) at 400 Hz. The different conditions tested were assessed based on the ratios of signal intensity of positive to negative control analytes and signal intensity in general.
Peptides containing two phosphotyrosine residues, spaced by 2-5 alanine residues, were titrated into 40 μM solution of compound 1 in complex with Zn^2+ (triflate salt) (pH 7.5 50 mM HEPES, 10% propylene, 25 mM NaCl) from 80 μM to 40 nM (FIG. 16). Y-axis is Δ Fluorescence Intensity as defined by the formula in example 2.
Using the same methods as described in Example 6, Zn^2+ (triflate salt) complexes of compounds 1, compound 9, compound 15, compound 14 were tested in pH 7.5, 50 mM HEPES, 25 mM NaCl, 10% propylene glycol.
Using the same methods as described in Example 6, Zn^2+ (triflate salt) complexes of compound 1 and compound 12 were tested in pH 7.5, 50 mM HEPES, 5% DMSO.

The test system of experiment [2] is proximally phosphorylated proteins (α-casein, β-casein and D-α-casein). The experiment in a line: In-solution detection of proteins. The settings on record: pH 7.5, 50 mM HEPES; for efficiency at detecting the proximally phosphorylated proteins: Zn^2+ (triflate salt) complexes, 75 mM NaCl, 20% DMSO. The experiment is classed as binding, Bos taurus.
Description: Non-phosphorylated (BSA and lysozyme) and distally phosphorylated negative control proteins (ovalbumin) were used in detection methods for in-solution, on gel and on blot applications. Dephosphorylated α-casein (D-α-casein), β-casein and α-casein served as proximally phosphorylated positive controls (see Table 2). The phosphosites presented in Table 2 were obtained from the PhosphoSitePlus database or a UniProt database.
as §1, with “proteins” for “peptides”, “3. Proteins” for “1. For the screens, analytes (peptides)”, “a” for “a specific”, “general. Among the parameters assessed in this study and using these specific control proteins, the following conditions were selected for proteins studies: pH 5.5 50 mM NaOAc, 50 mM NaCl, 5% DMSO (see FIG. 27). […] Depending on the number of proximally di-phosphorylated sites, lower detection limits could be achieved by using lower concentration of a sensor.” for “general.”
Using same methods as described in Example 1.1c, Zn^2+ (triflate salt) complexes of compounds 1 (top left), compound 9 (top right), compound 15 (middle left), and compound 14 (middle right) were tested in pH 7.5, 50 mM HEPES, 75 mM NaCl, 20% DMSO (see FIG. 28).
Using same methods as described in Example 14, 40 and 20 μM of Zn^2+ (triflate salt) complexes of compound 1 (top) and compound 12 (bottom) (FIG. 29), were tested in pH 7.5, 50 mM HEPES, 5% DMSO.
Using same methods as described above, 60, 40, 20 and 10 μM of Zn^2+ (triflate salt) complexed with compound 12 (FIG. 30), were titrated with 80-0.04 μM of proteins in pH 7.5, 50 mM HEPES, 5% DMSO.

For experiment [3], the system named is MRC-9 cells. Description: Fixed cell imaging. It is filed as cell-based, human. As for the experimental part: MRC-9 cells were plated on an 8-chamber tissue culture treated glass slide (BD Falcon; 40,000 cells/chamber) and cultured for two days at 37° C., 5% CO2. Media was removed and cells were incubated with 200 μL of 3.4% formaldehyde solution in 1×PBS for 10 min. Cells were washed 3×3 min with PBS and stored in PBS at 4° C. until staining. Cells were washed 3× with 50 mM HEPES and incubated in 40 μM solution of compound 1 in complex with Zn^2+ (triflate salt) dissolved in 50 mM HEPES, 75 mM NaCl, 10% DMSO for 1 h. Cells were rinsed 2× with 50 mM HEPES and mounted with a mounting solution and a cover slip.

For experiment [4], the target named is T1, β-casein (Bos taurus, UniProt P02666).
T1 construct: purchased Sigma Aldrich C6905-250MG
T1 sequence (P02666 16-224): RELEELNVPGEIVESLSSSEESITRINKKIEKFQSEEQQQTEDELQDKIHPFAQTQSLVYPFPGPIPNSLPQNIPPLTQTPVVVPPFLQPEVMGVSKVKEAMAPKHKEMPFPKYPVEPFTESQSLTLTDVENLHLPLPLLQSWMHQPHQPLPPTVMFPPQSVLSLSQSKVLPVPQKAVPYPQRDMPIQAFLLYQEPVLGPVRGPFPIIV
The experiment in a line: On-gel detection of proximally phosphorylated protein using GaCl3 complexes. The experiment is classed as binding. As for the experimental part:
(§2) Compound 8 was dissolved in 50 mM NaOAc buffer, pH 4.5, 50 mM NaCl, 10% DMSO and combined with 80, 160 or and 240 μM GaCl3 solutions. Each gel contained 4 lanes with equal amounts of BSA, ovalbumin (Ova), β-casein (β-cas) and lysozyme (Lyso) in each lane (left to right: 1, 0.5, 0.25 and 0.125 μg per protein per lane) (see FIG. 37). Gels were stained for 1 h with the sensor solution. Gels were first de-stained with 50 mM NaOAc buffer pH 4.5 for 2 h and then with 50 mM NaOAc buffer pH 4.0 20% acetonitrile for 40 h.
(§3) Compound 8 was dissolved in 100 mM NaOAc buffer, pH 4.5, 150 mM NaCl, 20% propylene glycol and combined with 10 and 15 μM GaCl3 solutions. Each gel contained 4 lanes with equal amounts of BSA, ovalbumin (Ova), β-casein (β-cas) and lysozyme (Lyso) in each lane (FIG. 40) left to right: 1, 0.5, 0.25 and 0.125 μg per protein per lane). Gels were stained for 1.5 h with the sensor solution. Destaining was performed for variable time (specified at the top) with 50 mM NaOAc, pH 4.0, 20% acetonitrile. Gels were rinsed with MiliQ water for 5 min prior to imaging. Images were acquired using ChemiDoc MP, using a 530 nm emission filter and UV trans excitation.
as §2, with “Compound 2” for “Compound 8”, “lane) (FIG. 42).” for “lane) (see FIG. 37).”, “h. […] However with the increased destaining time the intensity of β-casein band relative to other proteins was increasing, resulting in a 6.7-fold higher intensity over the distally phosphorylated protein ovalbumin. Lane containing 1 μg of each protein was analyzed (FIG. 43).” for “h.”
as §3, with “2” for “8”, “45)” for “40)”, “acetonitrile (see FIGS. 45 and 46).” for “acetonitrile.”

Experiment [5] is described as follows: Titration of compound with GaCl3 at different pH (fluorescence at 376 nm). It is filed as binding. The settings on record: 40 μM compound. The protocol: GaCl3 was titrated into 40 μM (constant) of compound 2 from 500 to 0.25 μM at pH 4.5 (50 mM NaOAc) and 7.5 (HEPES). Fluorescence intensity was measured at 376 and 476 nm at 350 nm excitation. […] At pH 4.5 saturation is observed at 10 μM of GaCl3.
40 μM of compound 3 was titrated with GaCl3 (250-0.12 μM) and the change in emission at 376 nm was recorded upon excitation at 350 nm as shown in FIG. 48.

In experiment [6] the test system is MRC-9 and A549 cell lines. The experiment in a line: Fixed cell imaging: monitoring increase in proximal phosphorylation. The experiment is classed as cell-based, human. The settings on record: pre-treatment before fixation.
Where [7] appears, read: 100 mM NaOAc pH 4.5, 150 mM NaCl, 20% propylene glycol, destain 50 mM NaOAc, pH 4.0, 20% acetonitrile.

With `c1cc2ccc3ccc(CN4CCNCCNCCNCC4)c4ccc(c1)c2c34` [compound 1, 1-(Pyren-1-methyl)-1,4,7,10-tetraazacyclododecane], the “signal with mono-phosphorylated or non-phosphorylated peptides” value in experiment [1] (Zn^2+ triflate complex, 40 μM) is given as “did not produce a significant signal”. For the same molecule, the “efficiency at detecting the proximally phosphorylated proteins” value in experiment [2] is reported as “comparable efficiency”. Further, the “intracellular fluorescence, metallated vs non-metallated” value in experiment [3] was “only compound 1-Zn^2+ complex, is capable of inducing intracellular fluorescence”.

In the case of `O=C(O)CN(CC(=O)O)c1ccccc1OCCOc1cc(NC(=O)CCCc2ccc3ccc4cccc5ccc2c3c45)ccc1N(CC(=O)O)CC(=O)O` [compound 2, 2,2′-((2-(2-(2-(bis(carboxymethyl)amino)-5-(4-(pyren-1-yl)butanamido)phenoxy)ethoxy)phenyl)azanediyl)diacetic acid], the “selectivity for β-casein after 2 h destaining” value in experiment [4] (80 μM compound, 1:1 GaCl3, stained 1 h) was “did not result in the selective staining”. Besides, the “β-casein over distally phosphorylated ovalbumin” value in experiment [4] (80 μM compound, 1:1 GaCl3, stained 1 h, 40 h destaining, 1 μg per protein) turned out to be 6.7 fold. In addition, the “selectivity for β-casein with more than 1:1 equivalent of compound:GaCl3” value in experiment [4] (50 mM NaOAc pH 4.5, 50 mM NaCl, 10% DMSO, 160 or 240 μM GaCl3) was “did not result in good selectivity”. Also, the “selective staining for β-casein, no destaining” value in experiment [4] (100 mM NaOAc pH 4.5, 150 mM NaCl, 20% propylene glycol, 1:1 and 1:1.5 compound:GaCl3, stained 1.5 h) was “did not result in selective staining”. In experiment [4] (setting [7]), the “staining of β-casein band following 16 h destain” value is given as “most prominently stained band” and the “β-casein signal over distally phosphorylated ovalbumin following 16 h destain” value is 10 fold. For the same molecule, the “GaCl3 concentration at which saturation is observed” value in experiment [5] (pH 4.5 (50 mM NaOAc)) stood at 10 µM. Besides, in experiment [5] (pH 7.5 (HEPES)), the “saturation at higher concentration of GaCl3” value is reported as “saturation was not observed”.

Consider `O=C(O)CN1CCN(CCCCc2ccc3ccc4cccc5ccc2c3c45)CCN(CC(=O)O)CCN(CC(=O)O)CC1` [compound 3, 2,2′,2″-(10-(4-(pyren-1-yl)butyl)-1,4,7,10-tetraazacyclododecane-1,4,7-triyl)triacetic acid], for which the “concentrations at which Ga^3+-compound complex formation was observed” value in experiment [5] (pH 5.5 and 4.5, 50 mM NaOAc) was “single-digit”.

As for `c1cc2ccc3ccc(CCCCN4CCNCCNCCNCC4)c4ccc(c1)c2c34` [compound 9, 1-(4-(pyren-1-yl)butyl)-1,4,7,10-tetraazacyclododecane], the “sensitivity for peptides in which the two phosphorylated tyrosine residues are more spaced out, vs compound 1” value in experiment [1] (Zn^2+ (triflate salt) complexes, pH 7.5, 50 mM HEPES, 25 mM NaCl, 10% propylene glycol) is “increased”. For the same molecule, the “efficiency at detecting the proximally phosphorylated proteins” value in experiment [2] was “comparable efficiency”.

On to `c1cc2ccc3ccc(CN4CCCNCCNCCCNCC4)c4ccc(c1)c2c34` [compound 12, 1-(pyren-1-ylmethyl)-1,4,8,11-tetraazacyclotetradecane], for which the “detecting proximally phosphorylated peptides” value in experiment [1] (Zn^2+ (triflate salt) complex, pH 7.5, 50 mM HEPES, 5% DMSO) was “potent”. The “detection limit on lowering the concentration of the sensor” value in experiment [2] (60, 40, 20 and 10 μM Zn^2+ complex, 5% DMSO) is recorded as “improved”.

IL-6: a JAK2 pathway-inducing agent: the “fluorescent signal from compound 1-Zn^2+ in pre-treated cells” value in experiment [6] is recorded as “significantly increased”.
